Peptide text beside a SMILES is read from it.
Columns and labels:
[1] = cited from earlier work
[2] = tested on: Pseudomonas aeruginosa (luminescent strain); test: Substitution analysis of apidaecin 1b by peptide array, bioluminescence assay; type: cell-based; settings: FIG. 1, luminescence, P. aeruginosa
Experimental: To optimize the antimicrobial activity of apidaecin 1b, a substitution analysis was carried out using this peptide (according to SEQ ID No. 2). The substitution library was synthesized by means of SPOT synthesis, and was analyzed for antibacterial activity against Pseudomonas aeruginosa by means of bioluminescence assay.
The SPOT synthesis of the peptide libraries was carried out on Whatman 50 filter paper (Sigma-Aldrich, Germany) measuring 19×29 cm by means of the Fmoc method and a SPOT synthesizer (Intavis AG, Germany) (according to Reineke U et al. 2001). The luminescence screening method that was used is based on the publication by Hilpert and Hancock (Hilpert, 2007). The peptides synthesized on the membrane were split off and the peptide spots were punched out of the peptide membrane using a hole punch, and were transferred to a 96-well microtiter plate (Corning, USA), after which 200 μL distilled water per well was added. […]
In the second step, the actual screening was performed. […] The incubation suspension (4 vol. % Log C in 100 mM Tris-HCl buffer (pH 7.3) with 40 mM sterile filtered glucose) was then distributed to 96-well plates (VWR, Germany) that are suitable for luminescence, and incubated with a concentration series of the peptide library for 4 hours at 37° C. After incubation, luminescence measurement was performed using a luminometer (Thermo, Finland).

| Compound | breakdown in mammalian serum (25%) [1] | substitution analysis value (measure of the activity; less than 1 = enhancement relative to native apidaecin) [2] |
| --- | --- | --- |
| CC[C@H](C)[C@H](NC(=O)[C@@H]1CCCN1C(=O)[C@H](CCCNC(=N)N)NC(=O)[C@@H]1CCCN1C(=O)[C@H](Cc1cnc[nH]1)NC(=O)[C@H](CO)NC(=O)[C@@H](NC(=O)[C@@H]1CCCN1C(=O)[C@H](CCCNC(=N)N)NC(=O)[C@@H]1CCCN1C(=O)[C@H](CO)NC(=O)[C@H](Cc1ccc(O)cc1)NC(=O)[C@@H]1CCCN1C(=O)[C@H](CCCNC(=N)N)NC(=O)[C@@H]1CCCN1C(=O)[C@H](CCCCN)NC(=O)CN)[C@@H](C)O)C(=O)N[C@@H](CCCNC(=N)N)C(=O)N[C@H](C(=O)O)C(C)C [drosocin] (H-GKPRPYSPRPTSHPRPIRV-OH) | broken down within one hour | – |
| native apidaecin sequence that is substituted at position 1 with cysteine: apidaecin 1b (SEQ ID No. 2) substituted at position 1 with cysteine, from the SPOT substitution library (CNNRPVYIPQPRPPHPRL; listed as Apis mellifera) | – | 0.55 |

Source: US9556228B2 (Universitaet Leipzig, priority 2011, dated 2017)
